Test results as given in article PMC7178834, “Antiproliferative benzothiazoles incorporating a trimethoxyphenyl scaffold as novel colchicine site tubulin polymerisation inhibitors” (Journal of Enzyme Inhibition and Medicinal Chemistry, 2020).
Blank lines part the entries; values can stand above or below the compound they belong to.

What was measured:
22RV1 cells [1] = assay: MTT antiproliferative assay, 22RV1 cells; type: cell-based; details: for IC50: MTT assay, exposure for 72 h
Protocol: (§1) PC3, C42B, 22RV1, and LNCAP cell lines were cultured in an atmosphere containing 5% CO2 at 37 °C, with RPMI-1640 medium with 10% foetal bovine serum, 100 U/ml penicillin and 0.1 mg/ml streptomycin. Cells were seeded at a density of 1500 per well in 96-well plates for 72 h. Then, 20 μL MTT (thiazolyl blue tetrazolium bromide) solution was added to each well, and incubated for 4 h at 37 °C. 150 μL DMSO was added to each well to dissolve the formazan after removing the liquid, the absorbance was determined at 570 nm.
To discovery novel anti-prostate cancer agents and tubulin polymerisation inhibitors, we evaluated the antiproliferative activity of all benzothiazole derivatives 9a∼9k and 12a∼12d against a prostate cancer cell line 22RV1 using the 3–(4,5-dimethyl-2-thiazolyl)-2,5-diphenyl-2-H-tetrazolium bromide (MTT) assay. Based on previous references, [5]-fluorouracil (5-Fu) and was usually selected as a reference drug in the MTT assay to evaluate the antiproliferative activity of synthetic benzothiazole derivatives[26]^,[27]. Therefore, 5-Fu was used as the control drug in this work. In addition, compound 4 was also the control drug to compare the antiproliferative activity.

[2] = tested on: human cervical cancer cell line ME-180; parameters: method as in PMID 24332497; details: read-out: Cytotoxicity IC50, ME-180; cited from earlier work
LNCAP cells = assay: MTT antiproliferative assay, LNCAP cells; type: cell-based; details: Homo sapiens
Protocol: as §1
(§2) Compound 12a was further examined for possible cytotoxicity against RWPE-1 (normal human prostatic cell line). […] To evaluate its antiproliferative activity against other prostate cancer cell lines, C42B, LNCAP and PC3 cells were selected to perform MTT assay.

PC3 cells [3] = assay: MTT antiproliferative assay, PC3 cells; type: cell-based; details: Homo sapiens, PC-3
Protocol: as §1, §2

[4] = Cytotoxicity against normal prostatic cell line RWPE-1; type: cell-based; details: RWPE-1 normal prostatic cells; normal human prostatic cell line
Protocol: as §1, §2

[5] = tested on: microtubule network in PC3 cells; assay: Immunofluorescence staining of microtubules in PC3 cells; type: cell-based; details: 48 h
Protocol: PC3 cells were seeded on the slices and incubated overnight. Then, cells were treated with different concentrations of 12a. After 48 h, slices were fixed by 4% paraformaldehyde for 15 min after washed by PBS for 3 times. 0.5% Triton-X-100 was added and shaked for 20 min. 0.1% BSA was used to block for 30 min and then removed. The slices were added β-tubulin antibody (1:100) and incubated overnight. Then slices were washed by PBST 3 times, bind with secondary antibody with FITC signal (1:500) in a dark. DAPI was used to stain for 3 min and then removed. After that, images were captured by Laser scanning confocal microscope (Nikon, Japan).
As the microtubule system played an important role in the maintenance of cell shape and basic cellular functions, an immunofluorescence staining assay was performed to study whether benzothiazole hybrid 12a could disrupt the microtubule dynamics in living cells.

tubulin = assay: In vitro tubulin polymerisation assay; type: biochemical; details: tubulin 5.6 mg/ml in PEM buffer, read-out: Tubulin polymerisation inhibition IC50
Protocol: Tubulin (5.6 mg/ml) was resuspended in PEM buffer (containing 80 mM PIPES, […], 1 mM EGTA, 10.2% glycerol, 0.5 mM MgCl2) and then was preincubated with compound 12a, colchicine or vehicle DMSO on ice. The reaction was monitored by a spectrophotometer in […] at 420 nm (excitation wavelength is 340 nm).
The in vitro tubulin polymerisation inhibition activity of compound 12a was evaluated because of its best antiproliferative activity results among all benzothiazole hybrids. When tubulin was incubated with the tested compound 12a, the increased tendency of the fluorescence intensity was obviously slowed down compared with the control.

22RV1 cells [6] = assay: DAPI staining, 22RV1 cells; type: cell-based; details: 22RV1 cells, 1, 2 and 4 μM, 48 h
Protocol: (§3) Cells were seeded on a 6-well plate (2 × 10^5/well) and treated with the test compound after the incubation for 24 h. Then, cells were stained by DAPI (4′,6-diamidino-2-phenylindole) in the dark for 30 min.

PC3 cells [7] = assay: DAPI staining, PC3 cells; type: cell-based; details: PC3 cells, 1, 2 and 4 μM, 48 h
Protocol: as §3

[8] = tested on: colchicine-binding site of β-tubulin; assay: EBI competition assay in PC3 cells; type: cell-based; details: preincubation at 10 μM, Western blot
Protocol: 6-Well plates were seeded with PC3 cells for 24 h. Then, cells were incubated with compound 12a, colchicine or DMSO for 2 h and afterward treated with EBI ([…]) for 2 h. Then, the cells were harvested and lysed. Cell extracts were used for Western blotting analysis.
(§4) Cellular protein lysates were denatured in loading buffer at 100 °C prior to adding into SDS-PAGE. Proteins were transferred to nitrocellulose membranes, probed with indicated antibodies, and visualised by an enhanced chemiluminescence detection system. The western blotting bands were semi-quantified using Image J and adjusted for loading control.
In order to evaluate whether benzothiazole hybrid 12a directly binds to tubulin at the colchicine binding site, we carried out N,N′-ethylenebis(iodoacetamide) (EBI) competition assay in PC3 cells according to previously published references[29]^,[30]. EBI is an alkylating agent that has the property to specifically cross-link the Cys239 and the Cys354 residues of β-tubulin involved in the colchicine-binding site[31]. The occupancy of colchicine-binding site by tubulin polymerisation inhibitors could inhibit the formation of the EBI: β-tubulin adduct.

C42B cells = assay: MTT antiproliferative assay, C42B cells; type: cell-based
Protocol: as §1, §2

[9] = tested on: apoptosis-related proteins (Bcl-2 and Cleaved-parp); assay: Western blot of apoptosis-related proteins, 22RV1 cells; type: cell-based; details: concentration-dependent
Protocol: as §4
(§5) Bcl-2 family proteins are key regulators of apoptosis and overexpression of the prominent pro-survival Bcl-2 family members like Bcl-2 is a common feature responsible for deregulation of apoptosis in prostate cancer cells. In order to investigate the apoptosis effects of compound 12a, the expression of apoptosis-related proteins (Bcl-2 and Cleaved-parp) were tested. As shown in the Figure 6(B), the expression level of Bcl-2 was decreased and the expression level of Cleaved-parp was increased in a concentration-dependent manner against prostate cancer (22RV1 cells and PC3 cells).

[10] = tested on: apoptosis-related proteins (Bcl-2 and Cleaved-parp); assay: Western blot of apoptosis-related proteins, PC3 cells; type: cell-based; details: concentration-dependent
Protocol: as §4, §5

IC50 (22RV1 cells [1]; Homo sapiens, 22Rv1, 72 h): 6.93 ± 0.46 µM
SMILES: COc1cc(N(Cc2ccc3ccccc3c2)C(=O)CSc2nc3ccccc3s2)cc(OC)c1OC [Compound 12d, 2-(Benzo[d]thiazol-2-ylthio)-N-(naphthalen-2-ylmethyl)-N-(3,4,5-trimethoxyphenyl)acetamide]

SMILES: CCOc1ccc2nc(N3CN(c4ccccc4)c4ccccc4C3=O)sc2c1 [Compound 3]
IC50 [2]: 4.01 µM

IC50 (22RV1 cells [1]; Homo sapiens, 22Rv1, 72 h): 7.37 ± 0.56 µM
SMILES: COc1cccc(CN(C(=O)CSc2nc3ccccc3s2)c2cc(OC)c(OC)c(OC)c2)c1 [Compound 9g, 2-(Benzo[d]thiazol-2-ylthio)-N-(3-methoxybenzyl)-N-(3,4,5-trimethoxyphenyl)acetamide]

IC50 (22RV1 cells [1]; Homo sapiens, 22Rv1, 72 h): 8.25 ± 0.43 µM
SMILES: COc1cc(N(Cc2ccc(C)cc2)C(=O)CSc2nc3ccccc3s2)cc(OC)c1OC [Compound 9e, 2-(Benzo[d]thiazol-2-ylthio)-N-(4-methylbenzyl)-N-(3,4,5-trimethoxyphenyl)acetamide]

IC50 (22RV1 cells [1]; Homo sapiens, 22Rv1, 72 h): 9.06 ± 0.17 µM
SMILES: COc1cc(N(Cc2ccccc2)C(=O)CSc2nc3ccccc3s2)cc(OC)c1OC [Compound 9f, 2-(Benzo[d]thiazol-2-ylthio)-N-benzyl-N-(3,4,5-trimethoxyphenyl)acetamide]

IC50 (22RV1 cells [1]; Homo sapiens, 22Rv1, 72 h): 11.8 ± 0.91 µM
SMILES: COc1cc(N(Cc2ccc(Cl)nc2)C(=O)CSc2nc3ccccc3s2)cc(OC)c1OC [Compound 12c, 2-(Benzo[d]thiazol-2-ylthio)-N-((6-chloropyridin-3-yl)methyl)-N-(3,4,5-trimethoxyphenyl)acetamide]

IC50 (22RV1 cells [1]; Homo sapiens, 22Rv1, 72 h): > 12 µM | IC50 (22RV1 cells [1]): 12.2 ± 0.58 µM
SMILES: COc1cc(N(Cc2ccc(Cl)cc2)C(=O)CSc2nc3ccccc3s2)cc(OC)c1OC [Compound 9c, 2-(Benzo[d]thiazol-2-ylthio)-N-(4-chlorobenzyl)-N-(3,4,5-trimethoxyphenyl)acetamide]

IC50 (22RV1 cells [1]; Homo sapiens, 22Rv1, 72 h): 6.2 ± 0.71 µM
SMILES: COc1cc(N(Cc2ccc(Br)cc2)C(=O)CSc2nc3ccccc3s2)cc(OC)c1OC [Compound 9d, 2-(Benzo[d]thiazol-2-ylthio)-N-(4-bromobenzyl)-N-(3,4,5-trimethoxyphenyl)acetamide]

IC50 (22RV1 cells [1]; Homo sapiens, 22Rv1, 72 h): > 20 µM
SMILES: COc1ccc(CN(C(=O)CSc2nc3ccccc3s2)c2ccc(C)cc2)cc1 [Compound 9i, 2-(Benzo[d]thiazol-2-ylthio)-N-(4-methoxybenzyl)-N-(p-tolyl)acetamide]

IC50 (22RV1 cells [1]; Homo sapiens, 22Rv1, 72 h): > 20 µM
SMILES: COc1ccc(CN(C(=O)CSc2nc3ccccc3s2)c2ccc(Cl)c(Cl)c2)cc1 [Compound 9j, 2-(Benzo[d]thiazol-2-ylthio)-N-(3,4-dichlorophenyl)-N-(4-methoxybenzyl)acetamide]

SMILES: O=c1[nH]cc(F)c(=O)[nH]1 [Compound 5-FU, [5]-fluorouracil, reference compound]
IC50 (22RV1 cells [1]): 18.3 ± 1.27 µM

IC50 (22RV1 cells [1]; Homo sapiens, 22Rv1, 72 h): 5.09 ± 0.62 µM
SMILES: COc1cc(N(Cc2ccncc2)C(=O)CSc2nc3ccccc3s2)cc(OC)c1OC [Compound 12b, 2-(Benzo[d]thiazol-2-ylthio)-N-(pyridin-4-ylmethyl)-N-(3,4,5-trimethoxyphenyl)acetamide]

SMILES: COc1ccc(CN(C(=O)CSc2nc3ccccc3o2)c2cc(OC)c(OC)c(OC)c2)cc1 [Compound 4, reference compound]
IC50 (22RV1 cells [1]; Homo sapiens, 22Rv1): 6.48 ± 0.25 µM | IC50 (LNCAP cells): 10 µM | IC50 (PC3 cells [3]): 3.53 µM

IC50 (22RV1 cells [1]; Homo sapiens, 22Rv1, 72 h): > 12 µM | IC50 (22RV1 cells [1]): 19.1 ± 1.15 µM
SMILES: COc1cc(N(Cc2cccc(Cl)c2)C(=O)CSc2nc3ccccc3s2)cc(OC)c1OC [Compound 9b, 2-(Benzo[d]thiazol-2-ylthio)-N-(3-chlorobenzyl)-N-(3,4,5-trimethoxyphenyl)acetamide]
Fold activity loss when p-Br replaced with m-Cl (9d vs. 9b) (22RV1 cells [1]; 22RV1 cells, ratio of IC50 values): over 3 fold

IC50 (22RV1 cells [1]; Homo sapiens, 22Rv1, 72 h): 2.13 ± 0.24 µM | IC50 (tubulin): 2.87 µM | IC50 (LNCAP cells): 4.31 µM | IC50 (PC3 cells [3]): 2.04 µM
SMILES: COc1cc(N(Cc2c(C)noc2C)C(=O)CSc2nc3ccccc3s2)cc(OC)c1OC [Compound 12a, 2-(Benzo[d]thiazol-2-ylthio)-N-((3,5-dimethylisoxazol-4-yl)methyl)-N-(3,4,5-trimethoxyphenyl)acetamide]
IC50 at 72 h [4]: > 20 µM | Effect on interphase microtubules ([5]; 1 μM): moderately depolymerised interphase microtubules | Effect on interphase microtubules ([5]; 4 μM): much stronger depolymerisation effects | Morphological changes (DAPI staining) (22RV1 cells [6]): characteristic apoptotic morphological changes were observed | Morphological changes (DAPI staining) (PC3 cells [7]): characteristic apoptotic morphological changes were observed | Formation of the EBI: β-tubulin adduct [8]: prevented the formation of the EBI: β-tubulin adduct | IC50 (C42B cells): 2.81 µM | Expression level of Bcl-2 [9]: decreased | Expression level of Cleaved-parp [9]: increased | Expression level of Bcl-2 [10]: decreased | Expression level of Cleaved-parp [10]: increased

IC50 (22RV1 cells [1]; Homo sapiens, 22Rv1, 72 h): 5.24 µM
SMILES: COc1ccc(CN(C(=O)CSc2nc3ccccc3s2)c2cc(OC)c(OC)c(OC)c2)cc1 [Compound 9h, 2-(Benzo[d]thiazol-2-ylthio)-N-(4-methoxybenzyl)-N-(3,4,5-trimethoxyphenyl)acetamide]

IC50 (22RV1 cells [1]; Homo sapiens, 22Rv1, 72 h): 16.2 ± 0.84 µM
SMILES: COc1cc(N(Cc2ccc(F)cc2)C(=O)CSc2nc3ccccc3s2)cc(OC)c1OC [Compound 9a, 2-(Benzo[d]thiazol-2-ylthio)-N-(4-fluorobenzyl)-N-(3,4,5-trimethoxyphenyl)acetamide]

IC50 (22RV1 cells [1]; Homo sapiens, 22Rv1, 72 h): > 20 µM | melting point: 109 to 110 °C
SMILES: COc1ccc(CN(C(=O)CSc2nc3ccccc3s2)c2ccccc2)cc1 [Compound 9k, 2-(Benzo[d]thiazol-2-ylthio)-N-(4-methoxybenzyl)-N-phenylacetamide]
